According to PubChem BioAssay AID272 (DTP/NCI, 2004):
“And” between values parts separate entries of the source, which are not always exact repeats. Equal values may be shown once. Inconclusive results are not listed.

Test system: Lewis lung carcinoma i.m., BDF1 mice, T/C %
Assay: NCI In Vivo Anticancer Drug Screen. Data for tumor model Lewis Lung Carcinoma (intramuscular) in B6D2F1 (BDF1) mice
Description: The antitumor activity of compounds was measured in mice bearing transplantable tumors. Survival or tumor size were measured and the results are expressed as the measurement made in the treated group (T) divided by the measurement made in the vehicle treated control group (C). The tumor model used in this assay is Lewis Lung Carcinoma (intramuscular) in B6D2F1 (BDF1) mice

[1] = endpoint: median survival time, dose: 400.0 mg/kg/injection, schedule: Q01DX011 (ip), vehicle: saline, higher = longer survival
[2] = endpoint: mean tumor weight, dose: 25.0 mg/kg/injection, schedule: Q01DX011 (ip), vehicle: saline, higher = larger tumour
[3] = endpoint: mean tumor weight, dose: 50.0 mg/kg/injection, schedule: Q01DX011 (ip), vehicle: saline, higher = larger tumour
[4] = endpoint: median survival time, dose: 25.0 mg/kg/injection, schedule: Q01DX011 (ip), vehicle: saline, higher = longer survival

NC(Cc1c[nH]c2ccc(N(CCCl)CCCl)cc12)C(=O)O (centres undefined)
T/C (endpoint: mean tumor weight, dose: 0.06 mg/kg/injection, schedule: Q01DX011 (ip), vehicle: other, higher = larger tumour): 90 % of control
T/C (endpoint: mean tumor weight, dose: 0.12 mg/kg/injection, schedule: Q01DX011 (ip), vehicle: other, higher = larger tumour): 96 % of control
T/C (endpoint: mean tumor weight, dose: 0.25 mg/kg/injection, schedule: Q01DX011 (ip), vehicle: other, higher = larger tumour): 105 % of control
T/C (endpoint: mean tumor weight, dose: 0.5 mg/kg/injection, schedule: Q01DX011 (ip), vehicle: other, higher = larger tumour): 97 % of control
T/C (endpoint: mean tumor weight, dose: 1.0 mg/kg/injection, schedule: Q01DX011 (ip), vehicle: other, higher = larger tumour): 83 % of control
T/C (endpoint: mean tumor weight, dose: 2.0 mg/kg/injection, schedule: Q01DX011 (ip), vehicle: other, higher = larger tumour): 103 % of control
T/C (endpoint: median survival time, dose: 0.06 mg/kg/injection, schedule: Q01DX011 (ip), vehicle: other, higher = longer survival): 94 % of control
T/C (endpoint: median survival time, dose: 0.12 mg/kg/injection, schedule: Q01DX011 (ip), vehicle: other, higher = longer survival): 102 % of control
T/C (endpoint: median survival time, dose: 0.25 mg/kg/injection, schedule: Q01DX011 (ip), vehicle: acid diluted with saline, higher = longer survival): 89 % of control
T/C (endpoint: median survival time, dose: 0.25 mg/kg/injection, schedule: Q01DX011 (ip), vehicle: other, higher = longer survival): 86 % of control
T/C (endpoint: median survival time, dose: 0.5 mg/kg/injection, schedule: Q01DX011 (ip), vehicle: acid diluted with saline, higher = longer survival): 105 % of control
T/C (endpoint: median survival time, dose: 0.5 mg/kg/injection, schedule: Q01DX011 (ip), vehicle: other, higher = longer survival): 96 % of control
T/C (endpoint: median survival time, dose: 1.0 mg/kg/injection, schedule: Q01DX011 (ip), vehicle: other, higher = longer survival): 104 % of control

Nc1ncnc2c1ncn2C1OC(CO)C(O)C1O (centres undefined)
T/C (endpoint: mean tumor weight (est.), dose: 200.0 mg/kg/injection, schedule: Q01DX011 (ip), vehicle: saline, higher = larger tumour): 65 % of control
T/C (endpoint: mean tumor weight (est.), dose: 400.0 mg/kg/injection, schedule: Q01DX011 (ip), vehicle: saline, higher = larger tumour): 63 % of control
T/C (endpoint: mean tumor weight (est.), dose: 600.0 mg/kg/injection, schedule: Q01DX011 (ip), vehicle: saline, higher = larger tumour): 15 % of control
T/C (endpoint: median survival time, dose: 200.0 mg/kg/injection, schedule: Q01DX011 (ip), vehicle: saline, higher = longer survival): 119 % of control
T/C [1]: 86 % of control

COCC(O)Cn1ccnc1[N+](=O)[O-] (centres undefined)
T/C (endpoint: median survival time, dose: 600.0 mg/kg/injection, schedule: Q01DX001 (ip), vehicle: saline, higher = longer survival): 90 % of control and 92 % of control and 96 % of control
T/C (endpoint: median survival time, dose: 1000.0 mg/kg/injection, schedule: Q01DX001 (ip), vehicle: saline, higher = longer survival): 92 % of control and 104 % of control and 106 % of control

CC(SC(C)C(=O)NN)C(=O)NN (centres undefined)
T/C (endpoint: mean tumor weight (est.), dose: 138.75 mg/kg/injection, schedule: Q01DX011 (ip), vehicle: saline, higher = larger tumour): 80 % of control
T/C (endpoint: mean tumor weight (est.), dose: 277.5 mg/kg/injection, schedule: Q01DX011 (ip), vehicle: saline, higher = larger tumour): 87 % of control
T/C (endpoint: mean tumor weight (est.), dose: 555.0 mg/kg/injection, schedule: Q01DX011 (ip), vehicle: saline, higher = larger tumour): 76 % of control
T/C (endpoint: median survival time, dose: 138.75 mg/kg/injection, schedule: Q01DX011 (ip), vehicle: saline, higher = longer survival): 90 % of control
T/C (endpoint: median survival time, dose: 277.5 mg/kg/injection, schedule: Q01DX011 (ip), vehicle: saline, higher = longer survival): 96 % of control
T/C (endpoint: median survival time, dose: 555.0 mg/kg/injection, schedule: Q01DX011 (ip), vehicle: saline, higher = longer survival): 90 % of control

O=C(O)c1[nH]c(=O)[nH]c(=O)c1F
T/C (endpoint: median survival time, dose: 0.19 mg/kg/injection, schedule: Q01DX011 (ip), vehicle: sodium bicarbonate, higher = longer survival): 100 % of control
T/C (endpoint: median survival time, dose: 0.38 mg/kg/injection, schedule: Q01DX011 (ip), vehicle: sodium bicarbonate, higher = longer survival): 111 % of control
T/C (endpoint: median survival time, dose: 0.75 mg/kg/injection, schedule: Q01DX011 (ip), vehicle: sodium bicarbonate, higher = longer survival): 92 % of control
T/C (endpoint: median survival time, dose: 1.5 mg/kg/injection, schedule: Q01DX011 (ip), vehicle: sodium bicarbonate, higher = longer survival): 100 % of control
T/C (endpoint: median survival time, dose: 2.5 mg/kg/injection, schedule: Q01DX011 (ip), vehicle: other, higher = longer survival): 105 % of control
T/C (endpoint: median survival time, dose: 3.12 mg/kg/injection, schedule: Q01DX011 (ip), vehicle: sodium bicarbonate, higher = longer survival): 101 % of control
T/C (endpoint: median tumor weight (est.), dose: 0.19 mg/kg/injection, schedule: Q01DX011 (ip), vehicle: sodium bicarbonate, higher = larger tumour): 96 % of control
T/C (endpoint: median tumor weight (est.), dose: 0.38 mg/kg/injection, schedule: Q01DX011 (ip), vehicle: sodium bicarbonate, higher = larger tumour): 85 % of control
T/C (endpoint: median tumor weight (est.), dose: 0.75 mg/kg/injection, schedule: Q01DX011 (ip), vehicle: sodium bicarbonate, higher = larger tumour): 101 % of control
T/C (endpoint: median tumor weight (est.), dose: 1.5 mg/kg/injection, schedule: Q01DX011 (ip), vehicle: sodium bicarbonate, higher = larger tumour): 108 % of control
T/C (endpoint: median tumor weight (est.), dose: 3.12 mg/kg/injection, schedule: Q01DX011 (ip), vehicle: sodium bicarbonate, higher = larger tumour): 81 % of control

CCCCCCCCCCCCCCCC[N+](C)(C)c1nc(Cl)nc(Cl)n1
T/C (endpoint: mean tumor weight (est.), dose: 7.5 mg/kg/injection, schedule: Q01DX011 (ip), vehicle: saline, higher = larger tumour): 92 % of control
T/C (endpoint: mean tumor weight (est.), dose: 15.0 mg/kg/injection, schedule: Q01DX011 (ip), vehicle: saline, higher = larger tumour): 65 % of control
T/C (endpoint: median survival time, dose: 7.5 mg/kg/injection, schedule: Q01DX011 (ip), vehicle: saline, higher = longer survival): 106 % of control
T/C (endpoint: median survival time, dose: 15.0 mg/kg/injection, schedule: Q01DX011 (ip), vehicle: saline, higher = longer survival): 112 % of control

CS(=O)(=O)OCCC(=O)N1CCN(C(=O)CCOS(C)(=O)=O)CC1
T/C (endpoint: mean tumor weight, dose: 12.5 mg/kg/injection, schedule: Q01DX011 (ip), vehicle: saline, higher = larger tumour): 79 % of control
T/C [2]: 60 % of control
T/C [3]: 61 % of control
T/C (endpoint: median survival time, dose: 12.5 mg/kg/injection, schedule: Q01DX011 (ip), vehicle: saline, higher = longer survival): 104 % of control
T/C [4]: 97 % of control

Cc1c2c(ccc3ccccc32)c[n+]2ccccc12
T/C (endpoint: mean tumor weight (est.), dose: 2.5 mg/kg/injection, schedule: Q01DX011 (ip), vehicle: saline, higher = larger tumour): 60 % of control
T/C (endpoint: mean tumor weight (est.), dose: 5.0 mg/kg/injection, schedule: Q01DX011 (ip), vehicle: saline, higher = larger tumour): 112 % of control
T/C (endpoint: mean tumor weight (est.), dose: 10.0 mg/kg/injection, schedule: Q01DX011 (ip), vehicle: saline, higher = larger tumour): 65 % of control
T/C (endpoint: median survival time, dose: 2.5 mg/kg/injection, schedule: Q01DX011 (ip), vehicle: saline, higher = longer survival): 107 % of control
T/C (endpoint: median survival time, dose: 5.0 mg/kg/injection, schedule: Q01DX011 (ip), vehicle: saline, higher = longer survival): 92 % of control
T/C (endpoint: median survival time, dose: 10.0 mg/kg/injection, schedule: Q01DX011 (ip), vehicle: saline, higher = longer survival): 94 % of control

COc1ccc([I+]c2ccc(OC)cc2)cc1
T/C (endpoint: median survival time, dose: 0.78 mg/kg/injection, schedule: Q01DX011 (ip), vehicle: saline, higher = longer survival): 110 % of control
T/C (endpoint: median survival time, dose: 1.56 mg/kg/injection, schedule: Q01DX011 (ip), vehicle: saline, higher = longer survival): 106 % of control
T/C (endpoint: median survival time, dose: 3.12 mg/kg/injection, schedule: Q01DX011 (ip), vehicle: saline, higher = longer survival): 98 % of control

CCCC(=O)Nc1ncnc2c1ncn2C1OC2COP(=O)(O)OC2C1OC(=O)CCC (centres undefined)
T/C [2]: 107 % of control
T/C [3]: 106 % of control
T/C (endpoint: mean tumor weight, dose: 100.0 mg/kg/injection, schedule: Q01DX011 (ip), vehicle: saline, higher = larger tumour): 114 % of control
T/C (endpoint: mean tumor weight, dose: 200.0 mg/kg/injection, schedule: Q01DX011 (ip), vehicle: saline, higher = larger tumour): 96 % of control
T/C (endpoint: mean tumor weight, dose: 400.0 mg/kg/injection, schedule: Q01DX011 (ip), vehicle: saline, higher = larger tumour): 90 % of control
T/C [4]: 118 % of control
T/C (endpoint: median survival time, dose: 50.0 mg/kg/injection, schedule: Q01DX011 (ip), vehicle: saline, higher = longer survival): 118 % of control
T/C (endpoint: median survival time, dose: 100.0 mg/kg/injection, schedule: Q01DX011 (ip), vehicle: saline, higher = longer survival): 100 % of control
T/C [1]: 104 % of control
